For data set [1], the system named is MRSA (Methicillin-Resistant Staphylococcus aureus). The experiment in a line: Growth retardation of MRSA in TS broth with enzyme/substrate system. The note with it: FIG. 8; 0.08% dilution of enzyme/substrate. In kind it is cell-based. How it is done:
A bacterial cell culture (A600=0.02) was grown in Tryptic Soy (TS) broth (Difco™, Becton Dickinson) in the presence of a 0.08% dilution (suboptimal concentration) of the enzyme/substrate system described in example 1. […] (see FIG. 8). It is observed that this effect is maintained for a significant time period.

For data set [2], the system named is HaCat keratinocytes cells. The experiment in a line: Cell toxicity (MTT) of oxidase/peroxidase alginate gel with guaiacol. The data set is classed as cell-based. The conditions noted are these: 200 μM guaiacol in gel, diluted 1 g in 9 ml, 24 hours; p=0.31. How it is done: (§1) HaCat keratinocytes cells and mouse 3T3 fibroblast cells were grown in the following growth medium: DMEM medium (high glucose; Sigma) supplemented with heat inactivated calf serum (10%) (Life Technologies), L-glutamine (4 mM) (Sigma) and Streptomycin/Penicillin (100 U) (Sigma). […] As a control an identical gel without guaiacol was prepared. One gram of the alginate gel was dissolved in 9 ml growth medium (diluted alginate gel). Cells were seeded at subconfluency. After overnight incubation at 37° C., 5% CO2, growth medium was replaced by diluted alginate gel and the cells were incubated at 37° C., 5% CO2 for another 24 hours. […] Cells were incubated in this MTT-medium for an additional 3 h. Cell viability and metabolism was assayed by determining the chromophoric conversion product of MMT at 570 nm.

For data set [3], the system named is mouse 3T3 fibroblast cells. The description is as above. The note with it: 200 μM guaiacol in gel, diluted 1 g in 9 ml, 24 hours; p=0.32. In kind it is cell-based. How it is done:
as §1

The test system of another data set is S. aureus. The experiment in a line: Antibacterial activity on S. aureus of oxidase/peroxidase with enhancing agents. In kind it is cell-based, Staphylococcus aureus. How it is done: Bacterial cells (S. aureus) were plated on Trypticase Soybean Agar plates (Becton Dickinson) and incubated overnight at 37° C. Cells were recovered from plates and mixed with NaCl-peptone broth buffer (Merck). The amount of medium is adjusted to give a bacterial suspension with a cell density of OD600=0.25 for bacteria.
For the examples described in the following examples, a fresh dilution of 0.25% (v/v) enzyme-substrate (Biovert™) stock solutions were prepared for each independent test. The Biovert™ enzyme stock solution contains 1527 U/ml lactoperoxidase; 2016 U/ml glucose oxidase; the Biovert™ substrate stock solution comprises: 55% (w/v) glucose, 0.51% (w/v) KSCN, 0.73% (w/v) KI.
In order to assess the synergistic action of the enhancing agent on the enzyme-substrate enhancing agent, the concentration of enzyme-substrate was adjusted to obtain conditions wherein the oxidase/peroxidase in a hydrogel performs limited but measurable antibacterial activity. The above mentioned (0.25% (v/v)) solution has accordingly been further diluted to 0.017% (v/v).
A 0.33% (w/v) Na-alginaat (Kelset), 0.66% (v/v) PEG400 gel solution was prepared in water, autoclaved and subsequently cooled to room temperature.
For the antibacterial assay the following components are mixed: 100 μl of bacterial cell suspension, 100 μl enzyme-substrate master solution (0.25%), 1 g (=1 ml) gel solution, 0.1-1 mg enhancing agent, 300 μl milliQ water. Final concentrations of the enzyme/substrate in the reaction mixture are 0.015 U/ml glucose oxidase, 0.011 U/ml lactoperoxidase, 0.00007% (w/v) potassium thiocyanate, 0.0001% (w/v) potassium iodide, 0.0076% glucose, and 0.066-0.66 mg/ml enhancing agent.

Another data set relates to E. coli. The experiment in a line: Antibacterial activity on E. coli of enhancing agents and oxidase/peroxidase. In kind it is cell-based, Escherichia coli. The note with it: FIG. 7; 6 hours of incubation. How it is done: Experiments using the conditions described in Example 1 and 2 were performed with Gram-negative bacteria (E. coli).
The nature of data set [4]: DPPH-radical bleaching assay. As for the experimental part:
DPPH (1,1-DiPhenyl-2-PicrylHydrazyl) is a cell-permeable, stable free radical that acts as a hydrogen radical scavenger, and is used as a screening tool for detecting free radical scavenging activity of antioxidants. When a radical solution is brought into contact with an antioxidant, the radical-molecule is reduced and thereby looses its characteristic purple colour. This “bleaching” can be monitored by spectrophotometric analysis.
A DPPH-radical solution (15 mg/ml) was prepared freshly in 1-octanol (Sigma) and 900 μl aliquots were transferred to 2 ml spectrophotometer cuvettes. 100 μl of 50 mMole/liter solutions of enhancing agents (dissolved in 1-octanol) were added to the solution (final concentration of the enhancing agents is 5 mMole/liter). Spectrophotometric analysis of the samples was carried out within 5 minutes, in order to prevent quenching caused by free (e.g. air born) radicals.
(In general: DPPH is a stable violet radical that fades when it is reduced.)

The next data set is described as follows: Beta-carotene assay. As for the experimental part:
In this assay, the antioxidant activity of a component is assessed by its ability to prevent bleaching of a beta-carotene solution by radicals formed upon illumination.
A beta-carotene solution (20 mg/ml) was prepared freshly in 1-octanol (Sigma) and 900 μl aliquots were transferred to 2 ml spectrophotometer cuvettes. 100 μl of 50 mMole/liter solutions of enhancing agents of the invention (dissolved in 1-octanol) were added to the solution (final concentration of the enhancing agents is 5 mMole/liter). The solutions were illuminated for up to 5 hours and spectrophotometric analysis was carried out at indicated time points.

Another data set has as its system Candida albicans. The experiment in a line: Growth retardation of Candida albicans in SD broth with enzyme/substrate system. The data set is classed as cell-based. The note with it: FIG. 9; 0.02% dilution of enzyme/substrate. How it is done:
A yeast cell culture (A600=0.05) was grown in Sabouraud Dextrose (SD) broth (Difco™, Becton Dickinson) in the presence of a 0.02% dilution (suboptimal concentration) of the enzyme/substrate system described in example 1.

The subject of data set [5] is MRSA (methicillin resistant S. aureus) bacteria. Briefly: Antibacterial activity on MRSA of oxidase/peroxidase with enhancing agents. The data set is classed as cell-based, Staphylococcus aureus. How it is done:
The effect of vanillin and guaiacol on the peroxidase/oxidase activity was assayed on MRSA (methicillin resistant S. aureus) bacteria using growth conditions and assay conditions as described in example 1.

For the molecule `COc1ccccc1O` [Guaiacol, 2-methoxyphenol], the “suppression of bacterial growth on addition to enzyme/substrate system” value in [1] is reported as “additional suppression of the bacterial growth”. Further, the “metabolic activity of cells (MTT), alginate hydrogel with versus without guaiacol” value in data set [2] and in data set [3] was “no statistical difference” in each case. Besides, the “bactericidal capacity when mixed with the enzyme-substrate solution” value in the data set with S. aureus (FIG. 1, enhancing agent and ES) is reported as “markedly enhanced the bactericidal capacity”. Also, the “effect on cell survival of the separate systems” value in the data set on S. aureus (FIG. 1, enhancing agent only) is “only moderately affected cell survival”. In the data set with S. aureus (antimicrobial effect), the “Enhancing effect on oxidase/peroxidase assay” value is listed as “+”. Besides, in the data set with E. coli, the “antibacterial effectiveness in combination with the enzyme-substrate” value is on record as “more effective than enzyme-substrate alone”. For the same molecule, in data set [4] (5 mMole/liter in 1-octanol), the “Antioxidant properties: DPPH assay” value was “+++”. Besides, in data set [4] (FIG. 4), the “potency as reducer / antioxidant efficiency” value was “nearly as efficient as gallic acid and propyl gallate”. The “Antioxidant properties: Beta-carotene assay” value in “Beta-carotene assay” (5 mMole/liter in 1-octanol) is on record as “++”. In addition, the “antioxidant performance in the beta carotene bleaching assay” value in the data set “Beta-carotene assay” (FIG. 3) is “very effective”. For the same molecule, in the data set with Candida albicans, the “suppression of fungal growth on addition to enzyme/substrate system” value is “additional suppression of the fungal growth”. The “enhancing effect on the peroxidase/oxidase activity” value in data set [5] (FIG. 5, ES + enhancing agent) is on record as “enhancing effect”. Further, in [5] (FIG. 5, enhancing agent alone), the “antibacterial effect of compound alone” value is “limited effect”. Further, the “enhancing effect on peroxidase/oxidase activity” value in data set [5] (FIG. 6, different concentrations of guaiacol) is listed as “significant enhancing effect”.

For the origin of these results see US8679526B2, “Antimicrobial peroxidase compositions” (Flen Pharma N.V., priority 2005, dated 2014).
